Test results as given in US12540120B2, “Herbicidal compounds” (SYNGENTA CROP PROTECTION AG, priority 2019, dated 2026).

How the values were obtained:
Format in all cases: in vivo
[1] = system: Amaranthus retoflexus (AMARE); assay: B3 Post-Emergence Efficacy—Test 3; settings: post-emergence application, 250 g/ha, evaluated after 13 days (Test 3)
Protocol: (§1) B3 Post-Emergence Efficacy—Test 3 Seeds of a variety of test species are sown in standard soil in pots:—Amaranthus retoflexus (AMARE), Setaria faberi (SETFA), Echinochloa crus-galli (ECHCG), Ipomoea hederacea (IPOHE), Zea Mays (ZEAMX), Abutilon theophrasti (ABUTH). After 8 days cultivation (post-emergence) under controlled conditions in a glasshouse (at 24/16° C., day/night; 14 hours light; 65% humidity), the plants are sprayed with an aqueous spray solution derived from the formulation of the technical active ingredient in acetone/water (50:50) solution containing 0.5% Tween 20 (polyoxyethylene sorbitan monolaurate, CAS RN 9005-64-5). Compounds are applied at 250 g/ha. The test plants are then grown in a glasshouse under controlled conditions in a glasshouse (at 24/16° C., day/night; 14 hours light; 65% humidity) and watered twice daily. After 13 days, the test is evaluated for the percentage damage caused to the plant. The biological activities are assessed on a five point scale (5=80-100%; 4=60-79%; 3=40-59%; 2=20-39%; 1=0-19%). A blank value in the table is indicative that the compound was not tested on that species.

[2] = system: Ipomoea hederacea (IPOHE); assay: B3 Post-Emergence Efficacy—Test 3; settings: post-emergence application, 250 g/ha, evaluated after 13 days (Test 3)
Protocol: as §1

[3] = system: Echinochloa crus-galli (ECHCG); assay: B3 Post-Emergence Efficacy—Test 3; settings: post-emergence application, 250 g/ha, evaluated after 13 days (Test 3)
Protocol: as §1

[4] = system: Abutilon theophrasti (ABUTH); assay: B3 Post-Emergence Efficacy—Test 3; settings: post-emergence application, 250 g/ha, evaluated after 13 days (Test 3)
Protocol: as §1

Zea Mays (ZEAMX) [5] = assay: B3 Post-Emergence Efficacy—Test 3; settings: post-emergence application, 250 g/ha, evaluated after 13 days (Test 3)
Protocol: as §1

Setaria faberi (SETFA) [6] = assay: B3 Post-Emergence Efficacy—Test 3; settings: post-emergence application, 250 g/ha, evaluated after 13 days (Test 3)
Protocol: as §1

[7] = system: Amaranthus retoflexus (AMARE); assay: B6 Pre-Emergence Efficacy—Test 3; settings: pre-emergence application, 250 g/ha, evaluated after 13 days (Test 3)
Protocol: (§2) B6 Pre-Emergence Efficacy—Test 3 Seeds of a variety of test species were sown in standard soil in pots: Amaranthus retoflexus (AMARE), Setaria faberi (SETFA), Echinochloa crus-galli (ECHCG), Ipomoea hederacea (IPOHE), Zea Mays (ZEAMX), Abutilon theophrasti (ABUTH). After cultivation for one day (pre-emergence) under controlled conditions in a glasshouse (at 24/16° C., day/night; 14 hours light; 65% humidity), the plants were sprayed with an aqueous spray solution derived from the formulation of the technical active ingredient in acetone/water (50:50) solution containing 0.5% Tween 20 (polyoxyethelyene sorbitan monolaurate, CAS RN 9005-64-5). Compounds are applied at 250 g/ha. The test plants were then grown in a glasshouse under controlled conditions (at 24/16° C., day/night; 14 hours light; 65% humidity) and watered twice daily. After 13 days, the test is evaluated for the percentage damage caused to the plant. The biological activities are assessed on a five point scale (5=80-100%; 4=60-79%; 3=40-59%; 2=20-39%; 1=0-19%). A blank value in the table is indicative that the compound was not tested on that species.

[8] = system: Ipomoea hederacea (IPOHE); assay: B6 Pre-Emergence Efficacy—Test 3; settings: pre-emergence application, 250 g/ha, evaluated after 13 days (Test 3)
Protocol: as §2

[9] = system: Echinochloa crus-galli (ECHCG); assay: B6 Pre-Emergence Efficacy—Test 3; settings: pre-emergence application, 250 g/ha, evaluated after 13 days (Test 3)
Protocol: as §2

[10] = system: Abutilon theophrasti (ABUTH); assay: B6 Pre-Emergence Efficacy—Test 3; settings: pre-emergence application, 250 g/ha, evaluated after 13 days (Test 3)
Protocol: as §2

Zea Mays (ZEAMX) [11] = assay: B6 Pre-Emergence Efficacy—Test 3; settings: pre-emergence application, 250 g/ha, evaluated after 13 days (Test 3)
Protocol: as §2

Setaria faberi (SETFA) [12] = assay: B6 Pre-Emergence Efficacy—Test 3; settings: pre-emergence application, 250 g/ha, evaluated after 13 days (Test 3)
Protocol: as §2

| SMILES | percentage damage caused to the plant, five point scale, AMARE [1] | percentage damage caused to the plant, five point scale, IPOHE [2] | percentage damage caused to the plant, five point scale, ECHCG [3] | percentage damage caused to the plant, five point scale, ABUTH [4] | percentage damage caused to the plant, five point scale, ZEAMX (Zea Mays (ZEAMX) [5]) | percentage damage caused to the plant, five point scale, SETFA (Setaria faberi (SETFA) [6]) | percentage damage caused to the plant, five point scale, AMARE [7] | percentage damage caused to the plant, five point scale, IPOHE [8] | percentage damage caused to the plant, five point scale, ECHCG [9] | percentage damage caused to the plant, five point scale, ABUTH [10] | percentage damage caused to the plant, five point scale, ZEAMX (Zea Mays (ZEAMX) [11]) | percentage damage caused to the plant, five point scale, SETFA (Setaria faberi (SETFA) [12]) |
| --- | --- | --- | --- | --- | --- | --- | --- | --- | --- | --- | --- | --- |
| Cc1nn(C)c(=O)c(-c2c(F)ccc(C3CC3)c2CCc2ccnc(F)c2)c1O [Compound C-1.013, 4-[3-cyclopropyl-6-fluoro-2-[2-(2-fluoro-4-pyridyl)ethyl]phenyl]-5-hydroxy-2,6-dimethyl-pyridazin-3-one] | 5 (5=80-100%) | 4 (4=60-79%) | 5 (5=80-100%) | 4 (4=60-79%) | 4 (4=60-79%) | 4 (4=60-79%) | 5 (5=80-100%) | 5 (5=80-100%) | 5 (5=80-100%) | 5 (5=80-100%) | 4 (4=60-79%) | 5 (5=80-100%) |
| Cc1nn(C)c(=O)c(-c2c(F)ccc(Cl)c2CCc2ccc(C3CCC(C)O3)cc2)c1O (stereo not drawn) [Compound A-1.380] | 4 (4=60-79%) | 3 (3=40-59%) | 1 (1=0-19%) | 3 (3=40-59%) | 2 (2=20-39%) | 3 (3=40-59%) | 5 (5=80-100%) | 4 (4=60-79%) | 0 | 4 (4=60-79%) | 2 (2=20-39%) | 1 (1=0-19%) |
| CSCc1ccc(CCc2c(Cl)ccc(F)c2-c2c(O)c(C)nn(C)c2=O)cc1 [Compound A-1.388, 4-[3-chloro-6-fluoro-2-[2-[4-(methylsulfanylmethyl)phenyl]ethyl]phenyl]-5-hydroxy-2,6-dimethyl-pyridazin-3-one] | 5 (5=80-100%) | 4 (4=60-79%) | 4 (4=60-79%) | 5 (5=80-100%) | 4 (4=60-79%) | 4 (4=60-79%) | 5 (5=80-100%) | 5 (5=80-100%) | 5 (5=80-100%) | 5 (5=80-100%) | 4 (4=60-79%) | 5 (5=80-100%) |
| Cc1nn(C)c(=O)c(-c2c(F)ccc(Cl)c2CCc2ccc(CSC(C)C)cc2)c1O [Compound A-1.389] | 4 (4=60-79%) | 5 (5=80-100%) | 5 (5=80-100%) | 4 (4=60-79%) | 5 (5=80-100%) | 5 (5=80-100%) | 5 (5=80-100%) | 5 (5=80-100%) | 5 (5=80-100%) | 3 (3=40-59%) | 4 (4=60-79%) | 5 (5=80-100%) |
| Cc1ccc(-c2ccc(CCc3c(Cl)ccc(F)c3-c3c(O)c(C)nn(C)c3=O)cc2)o1 [Compound A-1.381] | 4 (4=60-79%) | 4 (4=60-79%) | 0 | 3 (3=40-59%) | 1 (1=0-19%) | 2 (2=20-39%) | 3 (3=40-59%) | 3 (3=40-59%) | 0 | 1 (1=0-19%) | 1 (1=0-19%) | 0 |
| Cc1nn(C)c(=O)c(-c2c(F)ccc(Cl)c2CCc2ccc(-c3ncco3)cc2)c1O [Compound A-1.382] | 4 (4=60-79%) | 5 (5=80-100%) | 4 (4=60-79%) | 4 (4=60-79%) | 5 (5=80-100%) | 4 (4=60-79%) | 5 (5=80-100%) | 5 (5=80-100%) | 5 (5=80-100%) | 4 (4=60-79%) | 4 (4=60-79%) | 5 (5=80-100%) |
| CNS(=O)(=O)c1ccc(CCc2c(Cl)ccc(F)c2-c2c(O)c(C)nn(C)c2=O)cc1 [Compound A-1.390] | 5 (5=80-100%) | 4 (4=60-79%) |  | 4 (4=60-79%) | 1 (1=0-19%) | 5 (5=80-100%) | 5 (5=80-100%) | 5 (5=80-100%) |  | 5 (5=80-100%) | 1 (1=0-19%) | 5 (5=80-100%) |
| Cc1nn(C)c(=O)c(-c2c(F)ccc(Cl)c2CCc2ccc(C(N)=O)cc2)c1O [Compound A-1.392] | 5 (5=80-100%) | 3 (3=40-59%) |  | 4 (4=60-79%) | 2 (2=20-39%) | 5 (5=80-100%) | 5 (5=80-100%) | 5 (5=80-100%) | 5 (5=80-100%) | 5 (5=80-100%) | 2 (2=20-39%) | 5 (5=80-100%) |
